The values that follow come from publication PMC9705869, “Chromophorylation of a Novel Cyanobacteriochrome GAF Domain from Spirulina and Its Response to Copper Ions” (Journal of Microbiology and Biotechnology, 2020).

The assay has as its target T1, SPI1085g2 (Spirulina subsalsa, UniProt A0ABT3L563).
T1 construct: gene K4A83_08105; second GAF domain (GAF2) only, residues 216-369 of SPI1085; N-terminal polyhistidine tag kept (pETDuet); expressed in E. coli BL21(DE3) with ho1::pcyA or ho1::pebS
T1 sequence (A0ABT3L563 216-369): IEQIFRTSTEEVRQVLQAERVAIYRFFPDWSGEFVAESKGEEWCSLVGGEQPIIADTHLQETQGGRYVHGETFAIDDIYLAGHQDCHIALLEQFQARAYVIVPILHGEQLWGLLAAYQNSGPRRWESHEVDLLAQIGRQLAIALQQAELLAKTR
Description: zinc-induced fluorescence on SDS-PAGE; absorbance and acid-urea denaturation. In kind it is binding. The note with it: covalent, KPB pH […].

Consider `C/C=C1/C(=C/c2[nH]c(/C=C3N=C(/C=C4\NC(=O)C(CC)=C4C)C(C)=C\3CCC(=O)O)c(CCC(=O)O)c2C)NC(=O)[C@@H]1C` [PCB, phycocyanobilin], for which, where the note is “chromophore assembled in E. coli co-expressing ho1 and pcyA”, the “zinc-induced fluorescence on SDS-PAGE; absorbance and acid-urea denaturation” value was “SPI1085g2 can covalently bind PCB, as demonstrated by the zinc-dependent fluorescence observed by SDS-PAGE”.

For the compound `C=CC1=C(C)[C@@H](Cc2[nH]c(/C=C3N=C(/C=C4\NC(=O)[C@H](C)\C4=C/C)C(C)=C\3CCC(=O)O)c(CCC(=O)O)c2C)NC1=O` [PEB, phycoerythrobilin], the “zinc-induced fluorescence on SDS-PAGE; absorbance and acid-urea denaturation” value (chromophore assembled in E. coli co-expressing ho1 and pebS) is “resulted in highly efficient binding of PEB to SPI1085g2”.
